Measured values taken from PubChem BioAssay (NCI).
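In this assay, cells in 96-well plates receive the compound at five concentrations for 48 hours. Endpoints are linearly interpolated between the surrounding concentrations. TGI: concentration producing complete growth inhibition.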

Columns and labels:
Assay in all cases: growth of human tumour cells (NCI), 48 h
IGROV1 ovarian = tested on: IGROV1 ovarian
HT29 colon = tested on: HT29 colon
COLO 205 colon = tested on: COLO 205 colon
HCT-15 colon = tested on: HCT-15 colon
SW-620 colon = tested on: SW-620 colon
UO-31 renal = tested on: UO-31 renal
A549 NSCLC = tested on: A549 NSCLC
SF-295 CNS = tested on: SF-295 CNS
T-47D breast = tested on: T-47D breast
SNB-19 CNS = tested on: SNB-19 CNS

Compound	TGI (IGROV1 ovarian)	TGI (HT29 colon)	TGI (COLO 205 colon)	TGI (HCT-15 colon)	TGI (SW-620 colon)	TGI (UO-31 renal)	TGI (A549 NSCLC)	TGI (SF-295 CNS)	TGI (T-47D breast)	TGI (SNB-19 CNS)
CNc1ccc(C(=O)CC(O)CCC(C)C2OC(=O)CC(O)CC(=O)CC(O)CC(O)CC(O)CC(O)CC3(O)CC(O)C(C(=O)NCCN(C)C)C(CC(OC4OC(C)C(O)C(NC(=O)CN5CCN(C)CC5)C4O)/C=C/C=C/C=C/C=C\C=C/C=C/C=C/C2C)O3)cc1 (stereo not given)	> 100 µM	9.92 µM	> 100 µM	> 100 µM	> 100 µM	> 100 µM	> 100 µM	> 100 µM	> 100 µM	–
CC(C)(C)NC(NC(C)(C)C)=C(/C=C(/Cl)[N+](=O)[O-])[N+](=O)[O-]	> 100 µM	> 100 µM	60.3 µM	> 100 µM	–	> 100 µM	95.3 µM	> 100 µM	> 100 µM	> 100 µM
CC(C)CC1C(=O)NCCC(NC(=O)C(Cc2ccc(OC(C)(C)C)cc2)NC(=O)OC(C)(C)C)C(=O)NC(Cc2ccccc2)C(=O)NC(Cc2ccccc2)NC1=O (stereo not given)	31.7 µM	19.6 µM	11.7 µM	> 100 µM	13.6 µM	> 100 µM	–	22.8 µM	22.2 µM	42.4 µM
CN(C(=O)C1=CCC2(CC1)OCCO2)c1ccccc1OS(=O)(=O)C(F)(F)F	–	–	> 100 µM	> 100 µM	> 100 µM	> 100 µM	> 100 µM	> 100 µM	> 100 µM	> 100 µM
COc1cccc2c1OC(c1ccc(Cl)cc1)C([N+](=O)[O-])=C2 (stereo not given)	9.19 µM	3.21 µM	5.74 µM	10.8 µM	–	3.44 µM	22.5 µM	13.4 µM	9.13 µM	17 µM
COC(=O)CC(C#N)(OP1(=O)OC(c2ccccc2)C(C)N1C)c1ccccc1 (stereo not given)	> 100 µM	53.2 µM	> 100 µM	> 100 µM	43.6 µM	27.2 µM	> 100 µM	> 100 µM	96.7 µM	> 100 µM
CN=c1nc2sc3c(c2c(NC(=S)NC)s1)CCCC3	> 100 µM	> 100 µM	> 100 µM	> 100 µM	> 100 µM	> 100 µM	–	> 100 µM	–	> 100 µM
COc1ccc(N2C(=O)/C(=C(\C)c3cc4ccccc4oc3=O)N=C2c2cc([N+](=O)[O-])ccc2Cl)cc1	> 100 µM	> 100 µM	> 100 µM	–	> 100 µM	> 100 µM	> 100 µM	> 100 µM	–	> 100 µM
CC(C)C(=O)[C@@]1(C)SC[C@H]2CCN=C21	> 100 µM	> 100 µM	> 100 µM	> 100 µM	> 100 µM	> 100 µM	> 100 µM	> 100 µM	–	> 100 µM
Nc1ccc2c(c1)N(C(=O)c1cc3cc(NC(=O)c4cc5ccccc5o4)ccc3[nH]1)CC2CCl (stereo not given)	> 100 µM	> 32.7 µM	1.6 µM	> 100 µM	12.6 µM	13.1 µM	> 34.1 µM	–	0.683 µM	16.1 µM
CCCCc1c(N(C)C)c(OC(C)=O)c(-c2cn(C)c3ccccc23)oc1=O	–	47.5 µM	44.1 µM	53.7 µM	> 100 µM	53 µM	> 100 µM	> 100 µM	> 100 µM	90.3 µM
CC1=CC(C)C/C=C/C2C3OC3(C)C(C)C3C(Cc4c[nH]c5ccccc45)NC(=O)C23C(=O)C=CC(=O)C1O (stereo not given)	24.6 µM	6.66 µM	2 µM	8.67 µM	25.9 µM	6.05 µM	26.6 µM	27.8 µM	3.76 µM	> 46.6 µM
Cc1cc(C)n2nc3nc(N)c(C#N)c(-c4ccccc4)c3c2n1	> 100 µM	> 100 µM	> 100 µM	> 100 µM	> 100 µM	> 100 µM	> 100 µM	> 100 µM	> 100 µM	> 100 µM
CC(C)(C)[Si](OC1CC(n2cnc3c(N)ncnc32)OC1CO)(c1ccccc1)c1ccccc1 (stereo not given)	48 µM	30.2 µM	88.1 µM	–	34.1 µM	68.1 µM	30 µM	30.5 µM	–	50 µM
CCCCN(CCCC)CC(O)c1cc(-c2ccc(C(F)(F)F)cc2)nc(-c2ccc(C(F)(F)F)cc2)c1 (stereo not given)	> 100 µM	> 100 µM	> 100 µM	> 100 µM	> 100 µM	> 100 µM	–	> 100 µM	> 100 µM	> 100 µM
O=C(O)c1ccc(Nc2c3ccccc3nc3ccccc23)cc1	> 100 µM	> 100 µM	> 100 µM	> 100 µM	> 100 µM	> 100 µM	> 100 µM	> 100 µM	–	> 100 µM
OC1(C(F)(F)F)OCCN=C1C(F)(F)F (stereo not given)	> 100 µM	> 100 µM	> 100 µM	> 100 µM	> 100 µM	> 100 µM	> 100 µM	> 100 µM	> 100 µM	> 100 µM
OC1[C@@H]2[C@@H](O)[C@H](O)[C@@H](O)N2C[C@@H]1O (stereo not given in full)	> 100 µM	> 100 µM	> 100 µM	> 100 µM	> 100 µM	> 100 µM	> 100 µM	> 100 µM	> 100 µM	> 100 µM
COc1cc(C2SCC(=O)N2c2ccccn2)cc(OC)c1OC (stereo not given)	> 100 µM	> 100 µM	> 100 µM	> 100 µM	> 100 µM	> 100 µM	> 100 µM	> 100 µM	–	> 100 µM
CCOc1cc2c(OCc3ccccc3)cc3c4cc(OC)c(OC)cc4c[n+](C)c3c2cc1OC	–	11.1 µM	0.481 µM	> 100 µM	–	> 80.4 µM	24.2 µM	> 86.3 µM	> 100 µM	2.44 µM
COC(=O)C1=C(C)NC2=C(C(=O)c3ccccc32)C1c1cn(-c2ccccc2)nc1-c1ccccc1 (stereo not given)	> 100 µM	> 30.5 µM	> 100 µM	> 100 µM	> 100 µM	> 100 µM	> 100 µM	> 100 µM	> 100 µM	> 100 µM
CCCC(=O)n1[nH]c(=O)n(-c2ccc(Cl)cc2)c1=O	> 100 µM	> 100 µM	> 100 µM	> 100 µM	> 100 µM	> 100 µM	> 100 µM	> 100 µM	> 100 µM	> 100 µM

Compound	TGI (IGROV1 ovarian)	TGI (HT29 colon)	TGI (COLO 205 colon)	TGI (HCT-15 colon)	TGI (SW-620 colon)	TGI (UO-31 renal)	TGI (A549 NSCLC)	TGI (SF-295 CNS)	TGI (T-47D breast)	TGI (SNB-19 CNS)
COc1ccc(C2COc3cc(OC(C)=O)c(OC(C)=O)cc3C2)cc1 (stereo not given)	55.9 µM	56.1 µM	44.4 µM	52.9 µM	46.5 µM	40.6 µM	52.5 µM	38.7 µM	–	33.4 µM
CC(=O)N(C)c1ccc(Nc2cc(C)[nH]c3ccc4ncnc4c23)cc1	64.4 µM	34 µM	16 µM	93.3 µM	22.1 µM	56.3 µM	21.7 µM	39.1 µM	39.6 µM	42.4 µM
COc1cc(/C=C2\C[C@H]3[C@@H]4CCc5cc(O)ccc5[C@H]4CC[C@]3(C)C2=O)cc(OC)c1OC	32.8 µM	25 µM	61.5 µM	> 100 µM	34.1 µM	29.4 µM	31.8 µM	27.4 µM	38.5 µM	47.1 µM
C=C1C(=O)C[C@H]2C(=C)C(=O)O[C@@H]2C2C1CC[C@@]2(C)O (stereo not given in full)	> 100 µM	41.1 µM	54.8 µM	69.2 µM	> 100 µM	74.2 µM	> 100 µM	> 100 µM	68.8 µM	> 100 µM
Cc1cc(C)nc(NC(=O)c2ccc(Br)s2)c1	> 100 µM	> 100 µM	23.5 µM	> 100 µM	> 100 µM	> 100 µM	> 100 µM	> 100 µM	> 100 µM	> 100 µM
c1nc(OCC2CCCCC2)c2[nH]cnc2n1	> 100 µM	> 100 µM	> 100 µM	> 100 µM	> 100 µM	> 100 µM	> 100 µM	> 100 µM	–	> 100 µM
CCOC(=O)c1c(NC(=O)c2cccs2)sc2c1CCCC2	> 100 µM	> 100 µM	> 100 µM	> 100 µM	> 100 µM	> 100 µM	> 100 µM	> 100 µM	> 100 µM	> 81.2 µM
CCOC(=O)C1=C(C)N(Cc2ccc(Cl)cc2Cl)C2(O)C=CC(=O)C3C(=O)N(c4ccccc4)C(=O)C132 (stereo not given)	3.51 µM	3.5 µM	3.36 µM	3.88 µM	5.97 µM	5 µM	5.74 µM	11.2 µM	3.12 µM	3.73 µM
Nc1c2c(nc3cc(F)c(F)cc13)CCC2	> 100 µM	> 100 µM	> 100 µM	> 100 µM	> 100 µM	20.7 µM	> 100 µM	> 100 µM	> 100 µM	> 100 µM
Nc1ccc(Oc2ccc(C34CC5CC6C3CC3CC4C(C5)C6(c4ccc(Oc5ccc(N)cc5)cc4)C3)cc2)cc1	> 78.8 µM	> 100 µM	–	> 100 µM	> 100 µM	> 100 µM	> 83.8 µM	81.4 µM	> 81.5 µM	> 61.4 µM
O=c1cnn(C2OC(C(O)CO)C(O)C2O)c(=O)[nH]1 (stereo not given)	> 100 µM	> 100 µM	> 100 µM	> 100 µM	> 100 µM	> 100 µM	> 100 µM	–	> 100 µM	> 100 µM
CN(CC(=O)O)c1ncc2c(n1)-c1ccccc1SC2	> 100 µM	> 100 µM	> 100 µM	> 100 µM	> 100 µM	> 100 µM	> 100 µM	> 100 µM	–	> 100 µM
C1C2CC3CC1CC(Nc1nc(NC45CC6CC(CC(C6)C4)C5)nc(NC45CC6CC(CC(C6)C4)C5)n1)(C2)C3	–	> 100 µM	> 94.9 µM	> 100 µM	> 100 µM	> 100 µM	> 100 µM	> 100 µM	> 100 µM	> 100 µM
O=C1C(Cl)N(c2ccc(Cl)cc2)C1c1c[nH]c2ccccc12 (stereo not given)	62.6 µM	37.5 µM	47.8 µM	–	68.8 µM	35 µM	> 100 µM	31.5 µM	–	> 100 µM
COc1ccc(N2C(=O)CC(C3CC(C(C)(C)C)CCC3=O)C2=O)cc1 (stereo not given)	> 100 µM	> 100 µM	> 100 µM	> 100 µM	> 100 µM	> 100 µM	> 100 µM	–	> 100 µM	> 100 µM
COc1cc(C(=O)n2c3ccc(Br)cc3c3nc4ccccc4nc32)cc(OC)c1OC	> 100 µM	> 100 µM	> 100 µM	> 100 µM	> 100 µM	> 100 µM	–	> 100 µM	> 100 µM	> 100 µM
CC(C)(C)OC(=O)N1CCc2[nH][nH]c(=O)c2C1	> 100 µM	> 100 µM	> 100 µM	> 100 µM	> 100 µM	> 100 µM	> 100 µM	> 100 µM	–	> 100 µM
CC(=O)c1ccc(NCc2cc(O)ccc2O)cc1	> 100 µM	> 100 µM	43.8 µM	> 100 µM	> 100 µM	23.9 µM	–	34.6 µM	63.1 µM	> 100 µM
COc1cc(OC)c(-c2ccc(OCc3ccccc3)c3c(OC)cc(C)cc23)c2c1C(C)=N[C@H](C)C2	3.57 µM	3.84 µM	4.5 µM	4 µM	4.68 µM	2.63 µM	4.22 µM	3.78 µM	–	4.54 µM
O=C(O)c1ccc(N=C(C(=Nc2ccc(C(=O)O)cc2)c2ccccc2)c2ccccc2)cc1	> 100 µM	–	> 100 µM	> 100 µM	> 100 µM	> 100 µM	> 100 µM	> 100 µM	> 100 µM	> 100 µM
Oc1c(C2=NNC(c3ccc(Cl)cc3Cl)C2)ccc2ccccc12 (stereo not given)	> 100 µM	> 100 µM	> 100 µM	> 100 µM	> 100 µM	> 100 µM	> 100 µM	> 100 µM	> 100 µM	–
